From patent publication US20230024302A1, “2,3,5-TRISUBSTITUTED PYRAZOLO[1,5-A]PYRIMIDINE COMPOUNDS” (Arcus Biosciences, Inc., priority 2019, published 2023)

Assays:
[1] = molecular target: T1, PI3Kγ (p120γ) (Homo sapiens, UniProt P48736); test: Inhibition of PI3K kinase activity (ADP Glo), PI3Kγ; conditions: Table 2, p120γ, read-out: biochemical potency (PI3Kγ IC50)
T1 construct: purchased Promega V1761
Summary of the method: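 IC50 values come from a 4-parameter nonlinear fit of ADP-Glo luminescence, which measures ADP produced as PIP2 is phosphorylated to PIP3. The p120γ enzyme (2× stock 8 nM) sat with compound 1 h at rt before substrate (2× stocks: 50 μM ATP, 0.1 mg/ml PIP2) was added. Phosphorylation then proceeded 60 min at rt.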

[2] = molecular target: T2, PI3Kγ (Homo sapiens, UniProt P48736); test: PI3Kγ cellular assay in THP-1 cells (AKT pS473 AlphaLISA); format: cell-based; conditions: Table 2, rhMCP-1 stimulated AKT pS473, read-out: cellular potency (PI3Kγ IC50)
T2 construct: host or cells: THP-1
T2 sequence (P48736 whole entry): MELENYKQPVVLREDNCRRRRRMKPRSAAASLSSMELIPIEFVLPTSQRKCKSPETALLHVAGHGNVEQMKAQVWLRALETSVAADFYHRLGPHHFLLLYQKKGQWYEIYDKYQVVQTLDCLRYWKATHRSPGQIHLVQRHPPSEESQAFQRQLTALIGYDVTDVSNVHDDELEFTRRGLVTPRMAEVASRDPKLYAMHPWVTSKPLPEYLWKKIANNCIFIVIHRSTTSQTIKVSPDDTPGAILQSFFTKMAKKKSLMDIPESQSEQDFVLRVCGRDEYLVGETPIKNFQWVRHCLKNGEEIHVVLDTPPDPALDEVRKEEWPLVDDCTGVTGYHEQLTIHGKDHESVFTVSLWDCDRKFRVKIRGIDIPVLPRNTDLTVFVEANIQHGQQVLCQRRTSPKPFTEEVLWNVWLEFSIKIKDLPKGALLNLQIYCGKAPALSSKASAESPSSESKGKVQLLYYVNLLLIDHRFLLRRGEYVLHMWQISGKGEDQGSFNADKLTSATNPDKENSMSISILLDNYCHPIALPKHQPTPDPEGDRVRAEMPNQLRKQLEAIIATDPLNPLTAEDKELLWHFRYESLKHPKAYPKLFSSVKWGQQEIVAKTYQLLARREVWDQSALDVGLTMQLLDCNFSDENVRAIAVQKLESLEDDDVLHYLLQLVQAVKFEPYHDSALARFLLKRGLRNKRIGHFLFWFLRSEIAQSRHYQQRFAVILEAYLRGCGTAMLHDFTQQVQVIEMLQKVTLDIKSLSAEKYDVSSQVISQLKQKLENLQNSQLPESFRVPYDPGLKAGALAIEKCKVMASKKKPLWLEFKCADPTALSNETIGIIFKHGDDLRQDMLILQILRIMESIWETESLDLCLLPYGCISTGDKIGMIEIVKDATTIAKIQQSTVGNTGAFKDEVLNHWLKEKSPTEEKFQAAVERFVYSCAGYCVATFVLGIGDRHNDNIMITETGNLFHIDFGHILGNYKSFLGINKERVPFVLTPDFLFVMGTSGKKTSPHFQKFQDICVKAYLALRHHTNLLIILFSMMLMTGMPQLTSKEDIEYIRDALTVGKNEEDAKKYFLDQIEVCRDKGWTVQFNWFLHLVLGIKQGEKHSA
Summary of the method: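 Endogenous AKT S473 phosphorylation, detected by AlphaLISA in lysates, serves as the PI3Kγ activity read-out in stimulated, serum-starved THP-1 cells (1.8×10^5/well).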

T1 sequence (P48736 whole entry): as above

## CC[C@H](CO)NC(=O)c1c(N)nn2ccc(-c3cc(C)c4c(c3)CN([C@@H](C)C3CC3)C4=O)nc12 [Example 183]
[1]
  IC50: < 0.1 µM
[2]
  IC50: 0.1 to 1 µM

## Cc1cc(-c2ccn3nc(N)c(C(=O)N[C@H]4CC[C@H](N)CC4)c3n2)cc2c1C(=O)N([C@@H](C)C1CC1)C2 [Example 184]
[1]
  IC50: < 0.1 µM
[2]
  IC50: 0.1 to 1 µM

## Cc1cc(-c2ccn3nc(N)c(C(=O)N[C@H]4C[C@H](N)C4)c3n2)cc2c1C(=O)N([C@@H](C)C1CC1)C2 [Example 185]
[1]
  IC50: < 0.1 µM
[2]
  IC50: 0.1 to 1 µM

## Cc1cc(-c2ccn3nc(N)c(C(=O)NCCO)c3n2)cc2c1C(=O)N([C@@H](C)C1CC1)C2 [Example 186]
[1]
  IC50: < 0.1 µM
[2]
  IC50: 0.1 to 1 µM

## Cc1cc(-c2ccn3nc(N)c(C(=O)N[C@H]4CC[C@H](C(=O)O)CC4)c3n2)cc2c1C(=O)N([C@@H](C)C1CC1)C2 [Example 187]
[1]
  IC50: < 0.1 µM
[2]
  IC50: 0.1 to 1 µM

## Cc1cc(-c2ccn3nc(N)c(C(=O)NCC4(O)CC4)c3n2)cc2c1C(=O)N([C@@H](C)C1CC1)C2 [Example 188]
[1]
  IC50: < 0.1 µM
[2]
  IC50: 0.1 to 1 µM

## Cc1cc(-c2ccn3nc(N)c(C(=O)NC4CCC4)c3n2)cc2c1C(=O)N([C@@H](C)C1CC1)C2 [Example 189]
[1]
  IC50: < 0.1 µM
[2]
  IC50: 0.1 to 1 µM

## Cc1cc(-c2ccn3nc(N)c(C(=O)N[C@@H](C)C(N)=O)c3n2)cc2c1C(=O)N([C@@H](C)C1CC1)C2 [Example 190]
[1]
  IC50: < 0.1 µM
[2]
  IC50: 0.1 to 1 µM

## Cc1cc(-c2ccn3nc(N)c(C(=O)N[C@@H](CO)C(C)C)c3n2)cc2c1C(=O)N([C@@H](C)C1CC1)C2 [Example 191]
[1]
  IC50: < 0.1 µM
[2]
  IC50: 0.1 to 1 µM

## Cc1cc(-c2ccn3nc(N)c(C(=O)N[C@@H](CO)c4ccccc4)c3n2)cc2c1C(=O)N([C@@H](C)C1CC1)C2 [Example 192]
[1]
  IC50: < 0.1 µM
[2]
  IC50: 0.1 to 1 µM

## Cc1cc(-c2ccn3nc(N)c(C(=O)N[C@H]4CC[C@@H](C(=O)O)CC4)c3n2)cc2c1C(=O)N([C@@H](C)C1CC1)C2 [Example 193]
[1]
  IC50: < 0.1 µM
[2]
  IC50: 0.1 to 1 µM

## CC(=O)N1CC(NC(=O)c2c(N)nn3ccc(-c4cc(C)c5c(c4)CN([C@@H](C)C4CC4)C5=O)nc23)C1 [Example 194]
[1]
  IC50: < 0.1 µM
[2]
  IC50: 0.1 to 1 µM

## Cc1cc(-c2ccn3nc(N)c(C(=O)N[C@@H](CO)C4CC4)c3n2)cc2c1C(=O)N([C@@H](C)C1CC1)C2 [Example 195]
[1]
  IC50: < 0.1 µM
[2]
  IC50: 0.1 to 1 µM

## Cc1cc(-c2ccn3nc(N)c(C(=O)N[C@H]4C[C@@](C)(O)C4)c3n2)cc2c1C(=O)N([C@@H](C)C1CC1)C2 [Example 196]
[1]
  IC50: < 0.1 µM
[2]
  IC50: 0.1 to 1 µM

## Cc1cc(-c2ccn3nc(N)c(C(=O)N[C@@H]4CC[C@H](O)C4)c3n2)cc2c1C(=O)N([C@@H](C)C1CC1)C2 [Example 197]
[1]
  IC50: < 0.1 µM
[2]
  IC50: 0.1 to 1 µM

## Cc1cc(-c2ccn3nc(N)c(C(=O)N[C@@H]4c5ccccc5C[C@H]4O)c3n2)cc2c1C(=O)N([C@@H](C)C1CC1)C2 [Example 198]
[1]
  IC50: < 0.1 µM
[2]
  IC50: 0.1 to 1 µM

## Cc1cc(-c2ccn3nc(N)c(C(=O)N[C@@H]4COC[C@H]4O)c3n2)cc2c1C(=O)N([C@@H](C)C1CC1)C2 [Example 199]
[1]
  IC50: < 0.1 µM
[2]
  IC50: 0.1 to 1 µM

## Cc1cc(-c2ccn3nc(N)c(C(=O)N[C@@H](C)C4CCOCC4)c3n2)cc2c1C(=O)N([C@@H](C)C1CC1)C2 [Example 200]
[1]
  IC50: < 0.1 µM
[2]
  IC50: 0.1 to 1 µM

## Cc1cc(-c2ccn3nc(N)c(C(=O)NCc4ccncc4)c3n2)cc2c1C(=O)N([C@@H](C)C1CC1)C2 [Example 201]
[1]
  IC50: < 0.1 µM
[2]
  IC50: 0.1 to 1 µM

## Cc1cc(-c2ccn3nc(N)c(C(=O)N[C@@H]4CNC(=O)C4)c3n2)cc2c1C(=O)N([C@@H](C)C1CC1)C2 [Example 202]
[1]
  IC50: < 0.1 µM
[2]
  IC50: 0.1 to 1 µM

## Cc1cc(-c2ccn3nc(N)c(C(=O)NCC(C)(C)O)c3n2)cc2c1C(=O)N([C@@H](C)C1CC1)C2 [Example 203]
[1]
  IC50: < 0.1 µM
[2]
  IC50: 0.1 to 1 µM

## Cc1cc(-c2ccn3nc(N)c(C(=O)N[C@H]4CC[C@@H](O)CC4)c3n2)cc2c1C(=O)N([C@@H](C)C1CC1)C2 [Example 205]
[1]
  IC50: < 0.1 µM
[2]
  IC50: 0.1 to 1 µM

## Cc1cc(-c2ccn3nc(N)c(C(=O)N[C@H](C)CO)c3n2)cc2c1C(=O)N([C@@H](C)C1CC1)C2 [Example 206]
[1]
  IC50: < 0.1 µM
[2]
  IC50: 0.1 to 1 µM

## Cc1cc(-c2ccn3nc(N)c(C(=O)NCc4ccn(C)n4)c3n2)cc2c1C(=O)N([C@@H](C)C1CC1)C2 [Example 207]
[1]
  IC50: < 0.1 µM
[2]
  IC50: 0.1 to 1 µM

## Cc1cc(-c2ccn3nc(N)c(C(=O)NC4CC4)c3n2)cc2c1C(=O)N([C@@H](C)C1CC1)C2 [Example 208]
[1]
  IC50: < 0.1 µM
[2]
  IC50: 0.1 to 1 µM

## Cc1cc(-c2ccn3nc(N)c(C(=O)NC4CCN(C)CC4)c3n2)cc2c1C(=O)N([C@@H](C)C1CC1)C2 [Example 209]
[1]
  IC50: < 0.1 µM
[2]
  IC50: 0.1 to 1 µM

## Cc1cc(-c2ccn3nc(N)c(C(=O)N[C@H]4CCC[C@@H]4O)c3n2)cc2c1C(=O)N([C@@H](C)C1CC1)C2 [Example 210]
[1]
  IC50: < 0.1 µM
[2]
  IC50: 0.1 to 1 µM

## Cc1cc(-c2ccn3nc(N)c(C(=O)N[C@H]4CC[C@@H]4O)c3n2)cc2c1C(=O)N([C@@H](C)C1CC1)C2 [Example 211]
[1]
  IC50: < 0.1 µM
[2]
  IC50: 0.1 to 1 µM

## Cc1cc(-c2ccn3nc(N)c(C(=O)N[C@@H](C)c4cccnc4)c3n2)cc2c1C(=O)N([C@@H](C)C1CC1)C2 [Example 212]
[1]
  IC50: < 0.1 µM
[2]
  IC50: 0.1 to 1 µM

## Cc1cc(-c2ccn3nc(N)c(C(=O)NCC4CC4)c3n2)cc2c1C(=O)N([C@@H](C)C1CC1)C2 [Example 213]
[1]
  IC50: < 0.1 µM
[2]
  IC50: 0.1 to 1 µM

## Cc1cc(-c2ccn3nc(N)c(C(=O)NCc4cnn(C)c4)c3n2)cc2c1C(=O)N([C@@H](C)C1CC1)C2 [Example 214]
[1]
  IC50: < 0.1 µM
[2]
  IC50: 0.1 to 1 µM

## Cc1cc(-c2ccn3nc(N)c(C(=O)NC[C@H]4C[C@@H](O)C4)c3n2)cc2c1C(=O)N([C@@H](C)C1CC1)C2 [Example 215]
[1]
  IC50: < 0.1 µM
[2]
  IC50: 0.1 to 1 µM

## CNC(=O)c1c(N)nn2ccc(-c3cc(C)c4c(c3)CN([C@@H](C)C3CC3)C4=O)nc12 [Example 216]
[1]
  IC50: < 0.1 µM
[2]
  IC50: 0.1 to 1 µM

## Cc1cc(-c2ccn3nc(N)c(C(=O)N[C@@H](C)c4ccccn4)c3n2)cc2c1C(=O)N([C@@H](C)C1CC1)C2 [Example 217]
[1]
  IC50: < 0.1 µM
[2]
  IC50: 0.1 to 1 µM

## Cc1cc(-c2ccn3nc(N)c(C(=O)N[C@@H]4CCNC4)c3n2)cc2c1C(=O)N([C@@H](C)C1CC1)C2 [Example 218]
[1]
  IC50: < 0.1 µM
[2]
  IC50: 0.1 to 1 µM

## Cc1cc(-c2ccn3nc(N)c(C(=O)N[C@H](C)c4ccncc4)c3n2)cc2c1C(=O)N([C@@H](C)C1CC1)C2 [Example 219]
[1]
  IC50: < 0.1 µM
[2]
  IC50: 0.1 to 1 µM

## Cc1cc(-c2ccn3nc(N)c(C(=O)N[C@@H](C)C4CC4)c3n2)cc2c1C(=O)N([C@@H](C)C1CC1)C2 [Example 220]
[1]
  IC50: < 0.1 µM
[2]
  IC50: 0.1 to 1 µM

## Cc1cc(-c2ccn3nc(N)c(C(=O)N[C@@H](C)CO)c3n2)cc2c1C(=O)N([C@@H](C)C1CC1)C2 [Example 221]
[1]
  IC50: < 0.1 µM
[2]
  IC50: 0.1 to 1 µM

## Cc1cc(-c2ccn3nc(N)c(C(=O)NCC(F)(F)F)c3n2)cc2c1C(=O)N([C@@H](C)C1CC1)C2 [Example 222]
[1]
  IC50: < 0.1 µM
[2]
  IC50: 0.1 to 1 µM

## Cc1cc(-c2ccn3nc(N)c(C(=O)NC(C)(C)CO)c3n2)cc2c1C(=O)N([C@@H](C)C1CC1)C2 [Example 223]
[1]
  IC50: < 0.1 µM
[2]
  IC50: 0.1 to 1 µM

## Cc1cc(-c2ccn3nc(N)c(C(=O)NC(C)C(N)=O)c3n2)cc2c1C(=O)N([C@@H](C)C1CC1)C2 (some centres unmarked) [Example 224]
[1]
  IC50: < 0.1 µM
[2]
  IC50: 0.1 to 1 µM

## Cc1cc(-c2ccn3nc(N)c(C(=O)N[C@H]4CCNC4=O)c3n2)cc2c1C(=O)N([C@@H](C)C1CC1)C2 [Example 225]
[1]
  IC50: < 0.1 µM
[2]
  IC50: 0.1 to 1 µM

## Cc1cc(-c2ccn3nc(N)c(C(=O)NCC4COC4)c3n2)cc2c1C(=O)N([C@@H](C)C1CC1)C2 [Example 226]
[1]
  IC50: < 0.1 µM
[2]
  IC50: 0.1 to 1 µM

## Cc1cc(-c2ccn3nc(N)c(C(=O)NC[C@@H](C)O)c3n2)cc2c1C(=O)N([C@@H](C)C1CC1)C2 [Example 227]
[1]
  IC50: < 0.1 µM
[2]
  IC50: 0.1 to 1 µM

## Cc1cc(-c2ccn3nc(N)c(C(=O)NC4(CCO)CC4)c3n2)cc2c1C(=O)N([C@@H](C)C1CC1)C2 [Example 228]
[1]
  IC50: < 0.1 µM
[2]
  IC50: 0.1 to 1 µM

## Cc1cc(-c2ccn3nc(N)c(C(=O)N[C@@H]4CCCC[C@H]4O)c3n2)cc2c1C(=O)N([C@@H](C)C1CC1)C2 [Example 229]
[1]
  IC50: < 0.1 µM
[2]
  IC50: 0.1 to 1 µM
